# Target: T1, HIV-integrase (recombinant integrase) (Human immunodeficiency virus type 1 group M subtype B, UniProt P12497)
# T1 construct: Recombinant integrase (0.26 ng) was incubated with the beads
# Experiment: HIV-Integrase Inhibition Activity (SPA bead strand-transfer assay)
# Type: biochemical
# Settings: recombinant integrase on biotin labeled substrate DNA/SPA beads, P33 labeled target DNA; read-out: Activity (IC50 against HIV-integrase)
# Method: To evaluate in-vitro activity against HIV-integrase, 5 pmole of biotin labeled substrate DNA was bound to 100 μg of Streptavidin coated PVT SPA beads (Amersham Pharmacia Biotech). Recombinant integrase (0.26 ng) was incubated with the beads for 90 min at 37° C. Unbound enzyme was removed by washing the complex followed by addition of inhibitors and 0.1 fmol of P33 labeled target DNA. The reaction was stopped by adding EDTA to a final concentration of 10 mM. Samples were counted in TopCountNXT (Packard) and the CPM was used as a measure of integration. The reaction condition was as described in A. Engelman and R. Craigie, J. Virol. 69, 5908–5911 (1995). The sequences of substrate and target DNA were described in Nucleic Acid Research 22, 1121–1122 (1994). Activity equal to A refers to a compound having IC50=0.003 to 0.10 μM while B and C denote compounds the following IC50=0.1 to 1.0 μM and IC50≧1.0 μM respectively.
row,Structure (SMILES),IC50 [nM]
1,"Cn1c(N2CCCCS2(=O)=O)nc(C(=O)NCc2cccc(C(F)(F)F)c2)c(O)c1=O [Compound 29, 1,6-dihydro-5-hydroxy-1-methyl-6-oxo-2-(tetrahydro-1,1-dioxido-2H-1,2-thiazin-2-yl)-N-[[3-(trifluoromethyl)phenyl]methyl]-4-pyrimidinecarboxamide]",3 to 100
2,"Cn1c(N2CCCCS2(=O)=O)nc(C(=O)NCCc2cccc(Cl)c2)c(O)c1=O [Compound 30, N-[2-(3-chlorophenyl)ethyl]-1,6-dihydro-5-hydroxy-1-methyl-6-oxo-2-(tetrahydro-1,1-dioxido-2H-1,2-thiazin-2-yl)-4-pyrimidinecarboxamide]",100 to 1000
3,"Cn1c(N2CCCCS2(=O)=O)nc(C(=O)NCCc2ccccc2)c(O)c1=O [Compound 31, 1,6-dihydro-5-hydroxy-1-methyl-6-oxo-N-(2-phenylethyl)-2-(tetrahydro-1,1-dioxido-2H-1,2-thiazin-2-yl)-4-pyrimidinecarboxamide]",≥ 1000
4,"Cn1c(N2CCCCS2(=O)=O)nc(C(=O)NCc2ccc(C(F)(F)F)cc2)c(O)c1=O [Compound 32, 1,6-dihydro-5-hydroxy-1-methyl-6-oxo-2-(tetrahydro-1,1-dioxido-2H-1,2-thiazin-2-yl)-N-[[4-(trifluoromethyl)phenyl]methyl]-4-pyrimidinecarboxamide]",100 to 1000
5,"Cn1c(N2CCCCS2(=O)=O)nc(C(=O)NCc2ccco2)c(O)c1=O [Compound 33, N-(2-furanylmethyl)-1,6-dihydro-5-hydroxy-1-methyl-6-oxo-2-(tetrahydro-1,1-dioxido-2H-1,2-thiazin-2-yl)-4-pyrimidinecarboxamide]",100 to 1000
6,"Cn1c(N2CCCCS2(=O)=O)nc(C(=O)NCc2cccs2)c(O)c1=O [Compound 34, 1,6-dihydro-5-hydroxy-1-methyl-6-oxo-2-(tetrahydro-1,1-dioxido-2H-1,2-thiazin-2-yl)-N-(2-thienylmethyl)-4-pyrimidinecarboxamide]",100 to 1000
7,"Cn1c(N2CCCCS2(=O)=O)nc(C(=O)NCc2ccccc2)c(O)c1=O [Compound 35, 1,6-dihydro-5-hydroxy-1-methyl-6-oxo-N-(phenylmethyl)-2-(tetrahydro-1,1-dioxido-2H-1,2-thiazin-2-yl)-4-pyrimidinecarboxamide]",100 to 1000
8,"Cn1c(N2CCCCS2(=O)=O)nc(C(=O)NCc2ccccc2Cl)c(O)c1=O [Compound 36, N-[(2-chlorophenyl)methyl]-1,6-dihydro-5-hydroxy-1-methyl-6-oxo-2-(tetrahydro-1,1-dioxido-2H-1,2-thiazin-2-yl)-4-pyrimidinecarboxamide]",100 to 1000
9,"Cc1ccccc1CNC(=O)c1nc(N2CCCCS2(=O)=O)n(C)c(=O)c1O [Compound 37, 1,6-dihydro-5-hydroxy-1-methyl-N-[(2-methylphenyl)methyl]-6-oxo-2-(tetrahydro-1,1-dioxido-2H-1,2-thiazin-2-yl)-4-pyrimidinecarboxamide]",100 to 1000
10,"COc1ccccc1CCNC(=O)c1nc(N2CCCCS2(=O)=O)n(C)c(=O)c1O [Compound 38, 1,6-dihydro-5-hydroxy-N-[2-(2-methoxyphenyl)ethyl]-1-methyl-6-oxo-2-(tetrahydro-1,1-dioxido-2H-1,2-thiazin-2-yl)-4-pyrimidinecarboxamide]",≥ 1000
11,"COc1cccc(CCNC(=O)c2nc(N3CCCCS3(=O)=O)n(C)c(=O)c2O)c1 [Compound 39, 1,6-dihydro-5-hydroxy-N-[2-(3-methoxyphenyl)ethyl]-1-methyl-6-oxo-2-(tetrahydro-1,1-dioxido-2H-1,2-thiazin-2-yl)-4-pyrimidinecarboxamide]",≥ 1000
12,"Cc1ccc(CCNC(=O)c2nc(N3CCCCS3(=O)=O)n(C)c(=O)c2O)cc1 [Compound 40, 1,6-dihydro-5-hydroxy-1-methyl-N-[2-(4-methylphenyl)ethyl]-6-oxo-2-(tetrahydro-1,1-dioxido-2H-1,2-thiazin-2-yl)-4-pyrimidinecarboxamide]",≥ 1000
13,"COc1cc(CNC(=O)c2nc(N3CCCCS3(=O)=O)n(C)c(=O)c2O)cc(OC)c1OC [Compound 41, 1,6-dihydro-5-hydroxy-1-methyl-6-oxo-2-(tetrahydro-1,1-dioxido-2H-1,2-thiazin-2-yl)-N-[(3,4,5-trimethoxyphenyl)methyl]-4-pyrimidinecarboxamide]",≥ 1000
14,"Cn1c(N2CCCCS2(=O)=O)nc(C(=O)NCc2cc(Cl)ccc2Cl)c(O)c1=O [Compound 42, N-[(2,5-dichlorophenyl)methyl]-1,6-dihydro-5-hydroxy-1-methyl-6-oxo-2-(tetrahydro-1,1-dioxido-2H-1,2-thiazin-2-yl)-4-pyrimidinecarboxamide]",100 to 1000
15,"Cn1c(N2CCCCS2(=O)=O)nc(C(=O)NCc2ccc(Cl)cc2Cl)c(O)c1=O [Compound 43, N-[(2,4-dichlorophenyl)methyl]-1,6-dihydro-5-hydroxy-1-methyl-6-oxo-2-(tetrahydro-1,1-dioxido-2H-1,2-thiazin-2-yl)-4-pyrimidinecarboxamide]",100 to 1000
16,"Cn1c(N2CCCCS2(=O)=O)nc(C(=O)NCc2cc(C(F)(F)F)cc(C(F)(F)F)c2)c(O)c1=O [Compound 44, N-[[3,5-bis(trifluoromethyl)phenyl]methyl]-1,6-dihydro-5-hydroxy-1-methyl-6-oxo-2-(tetrahydro-1,1-dioxido-2H-1,2-thiazin-2-yl)-4-pyrimidinecarboxamide]",≥ 1000
17,"Cn1c(N2CCCCS2(=O)=O)nc(C(=O)NCc2cc(F)ccc2F)c(O)c1=O [Compound 45, N-[(2,5-difluorophenyl)methyl]-1,6-dihydro-5-hydroxy-1-methyl-6-oxo-2-(tetrahydro-1,1-dioxido-2H-1,2-thiazin-2-yl)-4-pyrimidinecarboxamide]",100 to 1000
18,"Cn1c(N2CCCCS2(=O)=O)nc(C(=O)NCc2ccccc2C(F)(F)F)c(O)c1=O [Compound 46, 1,6-dihydro-5-hydroxy-1-methyl-6-oxo-2-(tetrahydro-1,1-dioxido-2H-1,2-thiazin-2-yl)-N-[[2-(trifluoromethyl)phenyl]methyl]-4-pyrimidinecarboxamide]",100 to 1000
19,"Cn1c(N2CCCCS2(=O)=O)nc(C(=O)NCc2cc(F)cc(F)c2)c(O)c1=O [Compound 47, N-[(3,5-difluorophenyl)methyl]-1,6-dihydro-5-hydroxy-1-methyl-6-oxo-2-(tetrahydro-1,1-dioxido-2H-1,2-thiazin-2-yl)-4-pyrimidinecarboxamide]",100 to 1000
20,"Cn1c(N2CCCCS2(=O)=O)nc(C(=O)NCc2cccc(OC(F)(F)F)c2)c(O)c1=O [Compound 48, 1,6-dihydro-5-hydroxy-1-methyl-6-oxo-2-(tetrahydro-1,1-dioxido-2H-1,2-thiazin-2-yl)-N-[[3-(trifluoromethoxy)phenyl]methyl]-4-pyrimidinecarboxamide]",100 to 1000
21,"Cn1c(N2CCCCS2(=O)=O)nc(C(=O)NCCc2c[nH]c3ccccc23)c(O)c1=O [Compound 49, 1,6-dihydro-5-hydroxy-N-[2-(1H-indol-3-yl)ethyl]-1-methyl-6-oxo-2-(tetrahydro-1,1-dioxido-2H-1,2-thiazin-2-yl)-4-pyrimidinecarboxamide]",≥ 1000
22,"Cc1ncn(-c2nc(C(=O)NCc3ccc(F)cc3)c(O)c(=O)n2C)n1 [Compound 58, N-[(4-fluorophenyl)methyl]-1,6-dihydro-5-hydroxy-1-methyl-2-(3-methyl-1H-1,2,4-triazol-1-yl)-6-oxo-4-pyrimidinecarboxamide]",100 to 1000
23,"Cc1ncnn1-c1nc(C(=O)NCc2ccc(Cl)c(Cl)c2)c(O)c(=O)n1C [Compound 62, N-[(3,4-dichlorophenyl)methyl]-1,6-dihydro-5-hydroxy-1-methyl-2-(5-methyl-1H-1,2,4-triazol-1-yl)-6-oxo-4-pyrimidinecarboxamide]",3 to 100
24,"Cn1c(N)nc(C(=O)NCc2ccc(F)cc2)c(O)c1=O [Compound 63, 2-amino-5-hydroxy-1-methyl-6-oxo-1,6-dihydro-pyrimidine-4-carboxylic acid 4-fluorobenzylamine]",3 to 100
25,"CNc1nc(C(=O)NCc2ccc(F)cc2)c(O)c(=O)n1C [Compound 64, 5-Hydroxy-1-methyl-2-methylamino-6-oxo-1,6-dihydro-pyrimidine-4-carboxylic acid 4-fluoro-benzylamine]",3 to 100
26,"Cn1c(N2CCC(O)CC2)nc(C(=O)NCc2ccc(F)cc2)c(O)c1=O [Compound 65, N-[(4-fluorophenyl)methyl]-1,6-dihydro-5-hydroxy-2-(4-hydroxy-1-piperidinyl)-1-methyl-6-oxo-4-pyrimidinecarboxamide]",3 to 100
27,"Cc1cc(CNC(=O)c2nc(N3CCC(O)CC3)n(C)c(=O)c2O)ccc1F [Compound 66, N-[(4-fluoro-3-methylphenyl)methyl]-1,6-dihydro-5-hydroxy-2-(4-hydroxy-1-piperidinyl)-1-methyl-6-oxo-4-pyrimidinecarboxamide]",3 to 100
28,"Cn1c(N2CCN(CCO)CC2)nc(C(=O)NCc2ccc(F)cc2)c(O)c1=O [Compound 67, N-[(4-fluorophenyl)methyl]-1,6-dihydro-5-hydroxy-2-[4-(2-hydroxyethyl)-1-piperazinyl]-1-methyl-6-oxo-4-pyrimidinecarboxamide]",3 to 100
29,"Cc1cc(CNC(=O)c2nc(N3CCN(CCO)CC3)n(C)c(=O)c2O)ccc1F [Compound 68, N-[(4-fluoro-3-methylphenyl)methyl]-1,6-dihydro-5-hydroxy-2-[4-(2-hydroxyethyl)-1-piperazinyl]-1-methyl-6-oxo-4-pyrimidinecarboxamide]",3 to 100

# — patent publication US7135467B2, “HIV integrase inhibitors” (priority 2003, dated 2006)
